The subject of this assay is cortical cultures. Briefly: Neuroprotection in cortical cultures after toxin (okadaic acid), MTT survival assay. Particulars: higher concentrations of GPE, FIG. 12, 24 hrs incubation, 8DIV. The class given is cell-based, rat. The procedure:
One cortical hemisphere from a postnatal day 1 rat was used and collected into 4 ml of DMEM. Trituration was done with a 5 ml glass pipette and subsequently through an 18 gauge needle. Afterwards, the cell suspension was sieved through a 100 μm cell strainer and washed in 50 ml DMEM (centrifugation for 5 min at 250 g). […] After cells reached confluence, they were washed three times with PBS and adjusted to Neurobasal/B27 and incubated for another 3 days. This supernatant was frozen for transient storage until usage at −80° C. A dam was sacrificed by CO2-treatment in a chamber for up to 4 minutes and was prepared then for cesarean section. After surgery, the embryos were removed from their amniotic sacs, decapitated and the heads put on ice in DMEM/F12 medium for striatum and PBS+0.65% D(+)-glucose for cortex. The two cortical hemispheres were carefully removed by a spatula from the whole brain with the ventral side facing upside into a PBS +0.65% D(+)-glucose containing petri dish. […] Cells were counted and adjusted to 50,000 cells per 60 μl. […] The survival rate was determined by a colorimetric end-point MTT-assay at 595 nm in a multi-well plate reader. For the cerebellar microexplants four windows (field of 0.65 mm^2) with highest cell density were chosen and cells displaying neurite outgrowth were counted.
On the technique in general: Formazan colour is commonly taken as a measure of viable cells.

Consider `NCC(=O)N1CCC[C@H]1C(=O)N[C@@H](CCC(=O)O)C(=O)O` [GPE, glycyl-L-prolyl-L-glutamic acid], for which the neuroprotection came to 64%.

For the origin of these results see patent US20030055004A1, “GPE analogs and peptidominetics” (priority 2001, published 2003).
